Test results published in US20250114377A1, “TWO-PRONGED TREATMENT FOR NIEMANN PICK TYPE C DISEASE” (UNIVERSITY OF NOTRE DAME DU LAC, priority 2022, published 2025).

Tests used:
lysosomal tubulation = test: Rescue of lysosomal tubulation with purified oxysterols in LDL-depleted media (FIG. 4); type: cell-based; settings: media depleted of LDL supplemented with the oxysterol; 24-HC p<0.005, 25-HC p<0.0001
Experimental: FIG. 4. Rescue of Lysosomal Tubulation with Purified Oxysterols. Measurements of lysosomal tubulation comparing control complete media (Control) to media depleted of LDL (LDL−) and depleted media supplemented with 27-hydroxycholesterol (27-HC), 24-hydroxycholesterol (24-HC) or 25-hydroxycholesterol (25-HC).
Fixed and live-cell imaging was performed on COS-7 cells grown in Dulbecco's Modified Eagle's Medium (DMEM) supplemented with 10% fetal bovine serum, 1% L-glutamine, and penicillin/streptomycin (Sigma-Aldrich). Transfections were performed using either Lipofectamine (Life Technologies), X-treme Gene DNA Transfection reagent (Roche, Indianapolis, IN) or Nanofect (Allstem, Richmond, CA). J774A.1 mouse macrophages were provided and cultured in the same media. Cells were tested for contamination using PCR-based test kits (Sartorius, Inc.; Cat #SMB95-1001).
Microscopy experiments were performed on a Zeiss Axiovert 200M (Thornwood, NY) run by Metamorph software (Sunnyvale, CA). Fixed and live cell imaging data was collected using either a Photometrics Coolsnap HQ or Cascade 1k CCD camera (Tucson, AZ). Timelapse imaging of cells expressing NPC1-EGFP and mCherry-StARD9 utilized a Dual-view camera (Photometrics) adapter to allow simultaneous acquisition of green and red channels at each timepoint. Kymographs were generated in Metamorph using a 1p m slice from each frame.
To test this idea, we treated either NPC1 mutant (null or I1061T) or StARD9 mutant (null or truncation mutant) cells with 27-HC in a cocktail that delivers it into the cytoplasm independent of receptor-mediated endocytosis. […] Next, we treated NPC1(−/−) mice with 27-HC by i.p. delivery.

[1] = system: LE/L membrane tubule projection, COS-7 cells; test: LE/L tubule projection of NPC1-containing membranes with microtubule drugs; type: cell-based; settings: FP-tagged NPC1 membranes, live-cell imaging
From the text: Although it is well-accepted that mutations in NPC1 are responsible for ˜95% of human cases of NPC disease, there is less consensus on the specific cellular activities NPC1 is responsible for. For example, both the N-terminal domain and the sterol-sensing domain of NPC1 are thought to bind cholesterol and mediate the movement of lumenal cholesterol across the limiting membrane of LE/Ls. However, the lipids that over-accumulate in NPC disease are not limited to cholesterol and include oxysterols, sphingolipids, gangliosides and GPI-anchored proteins. Furthermore, the pathological accumulations of cholesterol have been proposed to affect the functional state of LE/Ls directly, including perturbing calcium uptake, autophagy/mitophagy and the thickness of the glycocalyx. However, the specific ways in which NPC1 mutations affect these parameters remain unclear. With this wide range of unknowns in mind, we generated a FP-tagged NPC1 plasmid construct for expression in mammalian cells. […] Also overlapping with previous observations, LE/L membranes incorporating FP-tagged NPC1 projected a population of long, slender, dynamic membrane tubules that emerged from the surface of stationary LE/Ls and extended towards the cell periphery (See Sterling, FIG. 1A and Sup Vid. 1). […]

| Compound | Rescue of lysosomal tubulation compared with 27-HC (lysosomal tubulation) | Effect on LE/L tubule projection [1] |
| --- | --- | --- |
| C[C@H](CCCC(C)(C)O)[C@H]1CC[C@H]2[C@@H]3CC=C4C[C@@H](O)CC[C@]4(C)[C@H]3CC[C@]12C [25-HC, 25-hydroxycholesterol] | significantly lower that 27-HC |  |
| CC(C)C(O)CC[C@@H](C)[C@H]1CC[C@H]2[C@@H]3CC=C4C[C@@H](O)CC[C@]4(C)[C@H]3CC[C@]12C (stereo partly shown) [24-HC, 24-hydroxycholesterol] | significantly lower that 27-HC |  |
| COC(=O)Nc1nc2ccc(C(=O)c3cccs3)cc2[nH]1 [nocodazole] |  | inhibited |
| CC(=O)O[C@H]1C(=O)[C@@]2(C)[C@H]([C@H](OC(=O)c3ccccc3)[C@]3(O)C[C@H](OC(=O)[C@H](O)[C@@H](NC(=O)c4ccccc4)c4ccccc4)C(C)=C1C3(C)C)[C@]1(OC(C)=O)CO[C@@H]1C[C@@H]2O [taxol] |  | inhibited |
